Assay results taken from US20070032477A1, “Pteridine derivatives useful for making pharmaceutical compositions” (priority 2003, published 2007).

Tests used:
[1] = test system: mixed lymphocyte reaction (PBMC with allogeneic PBMC or Eppstein-Barr Virus-transformed human B cells as stimulator cells); experiment: Mixed lymphocyte reaction (MLR) assay; type: cell-based; settings: lowest concentration giving 50% suppression of the MLR; [3H]-thymidine
[2] = test system: production of IL-1 β by PBMC in response to stimulation by LPS; experiment: IL-1 β assay; type: cell-based, human; settings: LPS 1 μg/ml, 72 hours, sandwich ELISA
Description: Peripheral blood mononuclear cells (herein referred as PBMC), in response to stimulation by lipopolysaccharide (LPS), a gram-negative bacterial endotoxin, produce various […], in particular human IL-1 β. Inhibition of the activation of PBMC can therefore be measured by the level of suppression of the production of IL-1 β by PBMC in response to stimulation by LPS.
Such inhibition measurement was performed as follows: PBMC were isolated from heparinized peripheral blood by density gradient centrifugation over Lymphoprep (commercially available from Nycomed, Norway). LPS was then added to the PMBC suspension in complete medium (10^6 cells/ml) at a final concentration of 1 μg/ml. The pteridine derivative to be tested was added at different concentrations (0.1 μM, 1 μM and 10 μM) and the cells were incubated at 37° C. for 72 hours in 5% CO2. The supernatants were collected, then IL-1 β concentrations were measured with an anti-IL-1 β antibody in a sandwich ELISA. The calorimetric reading of the ELISA was measured by a Multiskan RC plate reader (commercially available from ThermoLabsystems, Finland) at 450 nm (reference wavelength: 690 nm). Data analysis was performed with Ascent software 2.6. (also from ThermoLabsystems, Finland): a standard curve (recombinant human IL-1 β) was drawn and the amount (pg/ml) of each sample on the standard curve was determined.
The % suppression of human IL-1 β by the pteridine derivatives (drugs) of this invention was calculated using the formula: [formula]

[3] = test system: production of TNF-α by PBMC in response to stimulation by LPS; experiment: TNF-α assay; type: cell-based, human; settings: LPS 1 μg/ml, 72 hours, sandwich ELISA
Procedure, shortened: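 Cells were LPS-stimulated (1 μg/ml final) peripheral blood mononuclear cells at 10^6/ml, exposed 72 h at 37 °C to 0.1, 1 or 10 μM test compound.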

Compound: 2-amino-4-(1-butylpiperazino)-6-(3,4-dimethoxyphenyl)pteridine [Example 125]
- IC50 [1]: 800 nM
- IC50 [2]: 7500 nM

Compound: 2-amino-4-(1-cyclopentylpiperazino)-6-(3,4-dimethoxyphenyl)pteridine [Example 124]
- IC50 [3]: 400 nM
- IC50 [2]: 5000 nM

Compound: 2-amino-4-(1-isopropylpiperazino)-6-(3,4-dimethoxyphenyl)pteridine [Example 126]
- IC50 [1]: 4900 nM
- IC50 [2]: 3700 nM

Compound: 2-amino-4-(3-(piperazin-1-yl)-propionic acid ethyl ester)-6-(3,4-dimethoxyphenyl)pteridine [Example 134]
- IC50 [3]: 70 nM
- IC50 [2]: 1200 nM

Compound: 2-amino-4-((1-phenylethyl)-piperazin-1-yl)-6-(3,4-dimethoxyphenyl)pteridine [Example 152]
- IC50 [1]: 1200 nM
- IC50 [3]: 300 nM
- IC50 [2]: 3600 nM

Compound: 2-amino-4-((2-pyridyl)-piperazin-1-yl)-6-(3,4-dimethoxyphenyl)pteridine [Example 146]
- IC50 [1]: 200 nM
- IC50 [3]: 200 nM
- IC50 [2]: 5000 nM

Compound: 2-amino-4-((3-dichlorophenyl)-piperazin-1-yl)-6-(3,4-dimethoxyphenyl)pteridine [Example 151]
- IC50 [3]: 100 nM
- IC50 [2]: 3700 nM

Compound: 2-amino-4-((3-methoxyphenyl)-piperazin-1-yl)-6-(3,4-dimethoxyphenyl)pteridine [Example 148]
- IC50 [1]: 300 nM
- IC50 [3]: 300 nM
- IC50 [2]: 7200 nM

Compound: COc1ccc(-c2cnc3nc(N)nc(N4CCN(C(=O)c5ccc(Cl)cc5)CC4)c3n2)cc1OC [Example 12]
- IC50 [1]: 300 nM
- IC50 [3]: 200 nM
- IC50 [2]: 5000 nM

Compound: COc1ccc(-c2cnc3nc(N)nc(N4CCN(C(=O)CCc5ccccc5)CC4)c3n2)cc1OC [Example 15, 2-amino-4-[(N-hydrocinnamoyl)-piperazin-1-yl]-6-(3,4-dimethoxyphenyl)pteridine]
- IC50 [1]: 100 nM
- IC50 [3]: 10 nM
- IC50 [2]: 7000 nM

Compound: COc1ccc(-c2cnc3nc(N)nc(N4CCN(C(=O)N(C(C)C)C(C)C)CC4)c3n2)cc1OC [Example 20, 2-amino-4-[(N-diisopropylcarbamoyl)-piperazin-1-yl]-6-(3,4-dimethoxy-phenyl)pteridine]
- IC50 [1]: 500 nM
- IC50 [3]: 30 nM
- IC50 [2]: 8500 nM

Compound: CCCCCOc1ccc(C(=O)N2CCN(c3nc(N)nc4ncc(-c5ccc(OC)c(OC)c5)nc34)CC2)cc1 [Example 21, 2-amino-4-[N-(4-pentoxybenzoyl)-piperazin-1-yl]-6-(3,4-dimethoxy-phenyl)pteridine]
- IC50 [1]: 6000 nM
- IC50 [2]: 6700 nM

Compound: COc1ccc(-c2cnc3nc(N)nc(N4CCN(C(=O)Cc5cccs5)CC4)c3n2)cc1OC [Example 36, 2-amino-4-[(N-2-thiophenacetyl)-piperazin-1-yl]-6-(3,4-dimethoxy-phenyl)pteridine]
- IC50 [1]: 800 nM
- IC50 [3]: 300 nM
- IC50 [2]: 800 nM

Compound: COc1ccc(-c2cnc3nc(N)nc(N4CCN(C(=O)C=Cc5ccccc5)CC4)c3n2)cc1OC [Example 37, 2-amino-4-[(N-cinnamoyl)-piperazin-1-yl]-6-(3,4-dimethoxyphenyl)pteridine]
- IC50 [1]: < 1 nM
- IC50 [3]: 100 nM
- IC50 [2]: 3300 nM

Compound: COc1ccc(-c2cnc3nc(N)nc(N4CCN(C(=O)c5cccc6ccccc56)CC4)c3n2)cc1OC [Example 46]
- IC50 [3]: 200 nM
- IC50 [2]: 800 nM

Compound: COc1ccc(-c2cnc3nc(N)nc(N4CCN(C(=S)N(C)C)CC4)c3n2)cc1OC [Example 49, 2-amino-4-[(N-dimethylthiocarbamoyl)-piperazin-1-yl]-6-(3,4-dimethoxy-phenyl)pteridine]
- IC50 [1]: 400 nM
- IC50 [3]: 70 nM
- IC50 [2]: 2200 nM

Compound: COc1ccc(-c2cnc3nc(N)nc(N4CCN(C(=O)Oc5ccccc5)CC4)c3n2)cc1OC [Example 50, 2-amino-4-[(N-phenoxycarbonyl)-piperazin-1-yl]-6-(3,4-dimethoxy-phenyl)pteridine]
- IC50 [1]: 65 nM
- IC50 [3]: 20 nM
- IC50 [2]: 5500 nM

Compound: CC(=O)N1CCN(c2nc(N)nc3ncc(-c4ccc(C)cc4)nc23)CC1 [Example 56, 2-amino-4-(N-acetylpiperazin-1-yl)-6-(4-tolyl)pteridine]
- IC50 [1]: 2800 nM
- IC50 [3]: 3700 nM
- IC50 [2]: 8700 nM

Compound: CC(=O)N1CCN(c2nc(N)nc3ncc(-c4ccc(F)cc4)nc23)CC1 [Example 57, 2-amino-4-(N-acetylpiperazin-1-yl)-6-(4-fluoro-phenyl)pteridine]
- IC50 [1]: 1900 nM
- IC50 [2]: 9500 nM

Compound: COc1ccc(-c2cnc3nc(N)nc(N4CCN(c5ccccc5)CC4)c3n2)cc1OC [Example 64, 2-amino-4-(N-phenylpiperazin-1-yl)-6-(3,4-dimethoxyphenyl)pteridine]
- IC50 [1]: 400 nM
- IC50 [3]: 50 nM
- IC50 [2]: 4400 nM

Compound: COc1ccc(-c2cnc3nc(N)nc(N4CCN(Cc5ccccc5)CC4)c3n2)cc1OC [Example 65, 2-amino-4-(N-benzylpiperazin-1-yl)-6-(3,4-dimethoxyphenyl)pteridine]
- IC50 [3]: 95 nM
- IC50 [2]: 3500 nM

Compound: COc1ccc(OC(=O)N2CCN(c3nc(N)nc4ncc(-c5ccc(OC)c(OC)c5)nc34)CC2)cc1 [Example 91, 2-amino-4-[(N-4-methoxy-phenoxy-carbonyl)-piperazin-1-yl]-6-(3,4-dimethoxy-phenyl)pteridine]
- IC50 [1]: 52 nM
- IC50 [3]: 60 nM
- IC50 [2]: 4200 nM

Compound: COc1ccc(-c2cnc3nc(N)nc(N4CCN(C(=O)Oc5ccc(F)cc5)CC4)c3n2)cc1OC [Example 92, 2-amino-4-[(N-4-fluoro-phenoxy-carbonyl)-piperazin-1-yl]-6-(3,4-dimethoxyphenyl)pteridine]
- IC50 [1]: 50 nM
- IC50 [3]: 60 nM
- IC50 [2]: 8600 nM

Compound: COc1ccc(-c2cnc3nc(N)nc(N4CCN(C(=O)Oc5ccccc5OC)CC4)c3n2)cc1OC [Example 93]
- IC50 [1]: 70 nM
- IC50 [3]: 50 nM
- IC50 [2]: 4500 nM

Compound: COc1ccc(-c2cnc3nc(N)nc(N4CCN(C(=O)OCC(C)C)CC4)c3n2)cc1OC [Example 95, 2-amino-4-[N-isobutoxy-carbonyl-piperazin-1-yl]-6-(3,4-dimethoxyphenyl)pteridine]
- IC50 [1]: 120 nM
- IC50 [3]: 100 nM
- IC50 [2]: 1000 nM

Compound: COc1ccc(-c2cnc3nc(N)nc(N4CCN(C(=O)Oc5ccc6ccccc6c5)CC4)c3n2)cc1OC [Example 98]
- IC50 [1]: 120 nM
- IC50 [3]: 80 nM
- IC50 [2]: 6200 nM

Compound: COc1ccc(-c2cnc3nc(N)nc(N4CCN(C(=O)Nc5ccc(F)cc5)CC4)c3n2)cc1OC [Example 100]
- IC50 [1]: 7.4 nM
- IC50 [3]: 510 nM
- IC50 [2]: 7400 nM

Compound: COc1ccc(-c2cnc3nc(N)nc(N4CCN(C(=O)Nc5ccc(C)cc5)CC4)c3n2)cc1OC [Example 101, 2-amino-4-(N-4-methylphenyl-carbamoyl-piperazin-1-yl)-6-(3,4-dimethoxyphenyl)pteridine]
- IC50 [1]: 0.8 nM
- IC50 [3]: 430 nM
- IC50 [2]: 5600 nM

Compound: COc1ccc(-c2cnc3nc(N)nc(N4CCN(C(=O)Nc5ccsc5)CC4)c3n2)cc1OC [Example 107, 2-amino-4-(N-3-thienylcarbamoyl-piperazin-1-yl)-6-(3,4-dimethoxyphenyl)pteridines]
- IC50 [1]: 3 nM
- IC50 [3]: 500 nM
- IC50 [2]: 800 nM

Compound: COc1ccc(-c2cnc3nc(N)nc(N4CCN(C(=O)NCCc5cccs5)CC4)c3n2)cc1OC [Example 108, 2-amino-4-[N-2-(2-thienyl)ethylcarbamoyl-piperazin-1-yl]-6-(3,4-dimethoxyphenyl)pteridine]
- IC50 [1]: 34 nM
- IC50 [3]: 400 nM
- IC50 [2]: 1000 nM

Compound: COc1ccc(-c2cnc3nc(N)nc(N4CCN(CC5CCCCC5)CC4)c3n2)cc1OC [Example 123]
- IC50 [1]: 3900 nM
- IC50 [3]: 800 nM
- IC50 [2]: 4200 nM

Compound: COc1ccc(-c2cnc3nc(N)nc(N4CCN(CC(=O)N(C)c5ccccc5)CC4)c3n2)cc1OC [Example 132, 2-amino-4-(2-[piperazin-1-yl]-acetic acid N-methyl N-phenyl amide)-6-(3,4-dimethoxyphenyl)pteridine]
- IC50 [1]: < 100 nM
- IC50 [3]: 50 nM
- IC50 [2]: 5300 nM

Compound: COc1ccc(-c2cnc3nc(N)nc(N4CCN(Cc5ccc(Cl)cc5)CC4)c3n2)cc1OC [Example 139, 2-amino-4-((4-chlorobenzyl)piperazin-1-yl)-6-(3,4-dimethoxyphenyl)pteridine]
- IC50 [3]: 400 nM
- IC50 [2]: 1200 nM

Compound: COc1ccc(-c2cnc3nc(N)nc(N4CCN(c5cccc(C(F)(F)F)c5)CC4)c3n2)cc1OC [Example 173, 2-amino-6-(3,4-dimethoxyphenyl)-4-((3-trifluoromethylphenyl)-piperazin-1-yl)pteridine]
- IC50 [1]: 700 nM
- IC50 [2]: 4600 nM

Compound: COc1ccc(-c2cnc3nc(N)nc(N4CCN(c5ccc(C(F)(F)F)cc5)CC4)c3n2)cc1OC [Example 180, 2-amino-6-(3,4-dimethoxyphenyl)-4-((4-trifluoromethylphenyl)-piperazin-1-yl)pteridine]
- IC50 [3]: 1400 nM
- IC50 [2]: 4400 nM
